Results: US9856507B2, “Method for screening food ingredients and food compositions” (JAPANESE FOUNDATION FOR CANCER RESEARCH, priority 2013, dated 2018)

What was measured:
liver cancer [1] = assay: Liver cancer induction by oral deoxycholic acid in mice fed high-fat diets and given antibiotic cocktail; assay type: in vivo; settings: 40 μg/g body weight orally three times a week; HFD + antibiotic cocktail; n=3
Description: From the 13th week after the start of the raising, the antibiotic cocktail was administered to mice fed high-fat diets, which were then further raised. To these mice, 40 μg/g body weight of deoxycholic acid (DCA) or only a vehicle as a control was orally administered three times a week (FIG. 6A). […] The mice given deoxycholic acid developed a large number of liver tumors (indicated by Δ in the diagram), whereas cancer development was rarely seen in the control mouse group given only the vehicle. […] The cancer was rarely developed in the control mouse group given only the vehicle, and even if the cancer was developed, its tumor size was small. On the other hand, the deoxycholic acid administration group had multiple cancer (25 or more tumors per individual), and also, its size was large.

gut microbiota = assay: Gut microbiota analysis by PCR of 16S rRNA gene from feces; assay type: in vivo, mice
Description: Next, alteration in gut microbiota caused by antibiotic administration conducted in Example 3 will be shown. In the experimental schedule shown in FIG. 4A, 3 groups were used: a group fed normal diets, a group fed high-fat diets, and a group fed high-fat diets and also given vancomycin. The gut microbiota was analyzed.
The gut microbiota was identified by PCR analysis (Non Patent Literatures 11 and 12). Specifically, DNA was extracted from the feces and purified. The gene encoding 16S rRNA in many types of bacteria was amplified by PCR using universal primers. The V1-V4 hypervariable regions were further amplified, followed by identification.

liver cancer [2] = assay: Liver cancer development in DMBA-treated mice fed high-fat diets, antibiotic in drinking water; assay type: in vivo; settings: dissected at 30th week; antibiotic from 13 weeks old; compared with control
Text: An acetone solution containing 0.5% of the carcinogenic substance DMBA (7,12-dimethylbenz[a]anthracene) was applied once to the backs of wild-type (C57BL/6) neonatal mice. The neonatal mice were raised together with their mother mouse by feeding with normal diets (ND) or high-fat diet (HFD) until 4 weeks old. The high-fat diets used were D12492 (Rodent Diet with 60% kcal % Fat; Research Diets, Inc., USA). The neonatal mice were weaned at 4 weeks old and subsequently raised with normal diets or high-fat diet. At 30 weeks old, their livers and lungs were excised, and the presence or absence of cancer development was analyzed. The average body weight of the mice at the time of dissection was 33 g for the mice fed normal diets and 51 g for the mice fed high-fat diets. The mice fed high-fat diets had approximately 1.5 times the body weights of the mice fed normal diets.
DMBA was applied to wild-type neonatal mice, followed by high-fat diet feeding. From 13 weeks old, an antibiotic cocktail (4Abx, antibiotic cocktail administration group) or vancomycin (VCM, vancomycin administration group) mixed with drinking water was administered to the mice. At the 30th week after the start of the raising, their livers were excised, and liver cancer development was analyzed. […]
The mice of each group were dissected at the 30th week, and liver cancer development was analyzed (FIGS. 4C and 4D).

intestinal bacteria = assay: Level of gene encoding intestinal bacterial 16S rRNA after antibiotic administration; assay type: in vivo, mice; settings: 17 weeks after antibiotic administration, 30 weeks after birth; high-fat diet, drinking water
Description: DMBA was applied to wild-type neonatal mice, followed by high-fat diet feeding. From 13 weeks old, an antibiotic cocktail (4Abx, antibiotic cocktail administration group) or vancomycin (VCM, vancomycin administration group) mixed with drinking water was administered to the mice. At the 30th week after the start of the raising, their livers were excised, and liver cancer development was analyzed. On the other hand, the raising of a control group was continued in the same way as the aforementioned raising up to the 13th week. The antibiotic cocktail contained ampicillin (1 g/l), neomycin (1 g/l), metronidazole (1 g/l), and vancomycin (500 mg/l). Also, in the case of administering vancomycin alone, 500 mg/l was administered.

tumor size (liver) (liver cancer [1]) | tumors per individual (liver) (liver cancer [1]) | SMILES | Gram-negative microbiota, average (gut microbiota; HFD+VCM group, on average (FIG. 5)) [%] | cluster XI of the genus Clostridium (gut microbiota; high-fat diet plus vancomycin group, n=2) [%] | liver cancer development (tumor number and size) (liver cancer [2]) | amount of intestinal bacteria (level of gene encoding 16S rRNA) (intestinal bacteria)
large | ≥ 25 | C[C@H](CCC(=O)O)[C@H]1CC[C@H]2[C@@H]3CC[C@@H]4C[C@H](O)CC[C@]4(C)[C@H]3C[C@H](O)[C@]12C [deoxycholic acid] | – | – | – | –
– | – | CN[C@H](CC(C)C)C(=O)N[C@H]1C(=O)N[C@@H](CC(N)=O)C(=O)N[C@H]2C(=O)N[C@H]3C(=O)N[C@H](C(=O)N[C@H](C(=O)O)c4cc(O)cc(O)c4-c4cc3ccc4O)[C@H](O)c3ccc(c(Cl)c3)Oc3cc2cc(c3O[C@@H]2O[C@H](CO)[C@@H](O)[C@H](O)[C@H]2O[C@H]2C[C@](C)(N)[C@H](O)[C@H](C)O2)Oc2ccc(cc2Cl)[C@H]1O [vancomycin] | 99 | 0 | developed no liver cancer or developed liver cancer with a smaller tumor number and a smaller size as compared with the control | decreased into a very small level
